Results reported in publication PMC6271245, “Discovery of Gramine Derivatives That Inhibit the Early Stage of EV71 Replication in Vitro” (Molecules, 2014).
≈ marks a conversion by molar mass, not a printed value. Read-outs that look alike come from different tables or passages of the source.

Assays:
Enterovirus 71 (EV71) = experiment: Inhibition of EV71-induced cytopathogenicity (CPE) in RD cells, MTT; format: cell-based; settings: for EC50: Enterovirus A, read-out: EC50 (µg/mL) RD; for inhibition of virus-induced CPE (morphology): 10 µg/mL 4a, 20 µg/mL 4i, 40 µg/mL 4r or 4s, 48 h pi
Description: The antiviral activities of gramine and its derivatives against EV71 based on inhibition of virus-induced cytopathogenicity effects (CPEs) in African green monkey kidney cells (Vero) and rhabdomyosarcoma cells (RD) were examined. The cytotoxic effects were also evaluated. The inhibitory activities expressed as half maximal effective concentration (EC50) values and selectivity indexes (SI) for the target compounds are presented in Table 1, and the dose-dependent antiviral effects are shown in Figure 1A.
(§1) The activity of compounds against EV71 was determined based on the inhibition of virus-induced cytopathogenicity effects (CPEs) in acutely infected cells. Vero and RD cells grown to 90% confluency in 96-well dishes were washed with phosphate buffered saline (PBS) and infected with 100 TCID50 of EV71 mixed with serial dilutions of tested compounds for 1.5 h at 37 °C. The inoculum was aspirated and cells were incubated with DMEM and test compounds at 37 °C, 5% CO2 for 48 h. The CPEs were observed microscopically and the viability of the cells was determined with a 3-(4,5-dimethylthiazol-2-yl)-2,5-diphenyltetrazolium bromide (MTT) assay. The concentrations required for the test compounds to achieve 50% protection from virus-induced cytopathogenicity (EC50) were determined. Adverse effects of these compounds on the host cells were also assessed by means of the MTT-method; by exposing uninfected cells to various concentrations of test compounds for 48 h at 37 °C, the viability of the cells was detected. The 50% cell cytotoxic concentrations (CC50) of compounds were calculated with the SPSS software (SPSS, Chicago, IL, USA). Selectivity indexes were calculated as the ratio of CC50: EC50.
(§2) Cell viability was assessed by an MTT assay, which functions based on the reduction of a MTT into formazan dye by active mitochondria. The cells were treated with 100 µL of MTT (1 mg/mL, Sigma, St. Louis, MO, USA) and incubated at 37 °C for 4 h. The reaction was blocked by DMSO and measured in a microplate reader (Bio-Tek Instruments, Winooski, VT, USA) at 492 nm. The untreated control was arbitrarily set as 100%.

[1] = Cytotoxicity on uninfected RD cells, MTT; format: cell-based; settings: human, concentration reducing cell viability by 50%
Description: Human RD cells and Vero cells were maintained in Dulbecco’s modified Eagle’s medium (Gibco-Invitrogen, Carlsbad, CA, USA) supplemented with 10% fetal bovine serum (FBS; Gibco), 100 U/mL of penicillin and streptomycin, and 2 mM L-glutamine. Enterovirus 71 (EV71) was kindly provided by Zhanqiu Yang (Institute of Medical Virology, School of Medicine, Wuhan University, China) and propagated in RD cell lines. The virus titer was determined by the standard method of median tissue culture infective dose (TCID50) on RD cells.
as §1, §2

EV71 [2] = experiment: Analysis of effective stage (treatment before, during or post infection) in RD cells; format: cell-based, Enterovirus 71; settings: for titers of virus from infected cells, treatment before infection (preventive effect): RD cells pretreated 2 h with 10 µg/mL 4a, 20 µg/mL 4i, 40 µg/mL 4r or 4s, 48 h; for inhibition of virus-induced CPEs, post-infection treatment: up to 40 µg/mL
Description: To identify the step in the viral life cycle that is affected by these compounds, the assays were performed using three different treatment protocols. […] For all treatments, cell viability and progeny virus yields were measured after 48 h of infection.
(§3) Figure 2 Analysis of modes of action against EV71 of gramine derivatives. Analysis of effective stage. The RD cells were treated with tested compounds before, simultaneously or after EV71 (100 TCID50) inoculation: antiviral effects were detected by measuring (A) cell viability and (B) progeny virus yields (10 µg/mL 4a, 20 µg/mL 4i, 40 µg/mL 4r and 4s) 48 h post infection; (C) Analysis of the effects on EV71 adsorption. Mock- or 10 µg/mL 4a, 20 µg/mL 4i, 40 µg/mL 4r and 4s-treated EV71 (10^4 TCID50) was spinoculated onto RD cells and adsorbed for 2 h; intracellular virus was subjected to titration using the TCID50 method; (D) Effects on EV71 release from RD cells. RD cells infected with 100 TCID50 of EV71 were incubated with 10 µg/mL 4a, 20 µg/mL 4i, 40 µg/mL 4r and 4s for 12 h, of both cells and supernatants (intra- and extracellular), or of cells or supernatants harvested separately for virus titration. […] Values represent the mean ± standard deviation of three independent experiments.
as §2
(§4) The virus suspension, serially diluted 10-fold with DMEM containing 2% FBS, was inoculated to cells in a 96-well plate. After 1 h incubation at 37 °C in 5% CO2, unbinding virus was washed out and MM was added to the cells. After 2 days, the infected cells were monitored for cytopathic effects (CPEs). The virus titer was calculated by the Reed–Muench method.

EV71 [3] = experiment: Effect on EV71 adsorption, intracellular virus titration; format: cell-based, Enterovirus 71; settings: EV71 (10^4 TCID50) treated with 10 µg/mL 4a, 20 µg/mL 4i, 40 µg/mL 4r or 4s, spinoculated onto RD cells, adsorbed 2 h
Description: Mock- or 10 µg/mL 4a, 20 µg/mL 4i, or 40 µg/mL 4r or 4s-treated EV71 (10^4 TCID50) were spinoculated onto cells and adsorbed for 2 h. The infected cells were harvested following freeze–thaw cycles and then subjected to virus titration.
as §3, §4

EV71 [4] = experiment: Effect on EV71 release from RD cells; format: cell-based, Enterovirus 71; settings: 10 µg/mL 4a, 20 µg/mL 4i, 40 µg/mL 4r or 4s after infection, supernatants and cells harvested together or separately at 12 h
Description: as §3
A possible effect of the compounds on viral release from cells was tested. The RD cells were treated with or without 10 µg/mL 4a, 20 µg/mL 4i, or 40 µg/mL 4r or 4s after EV71 infection, and the supernatants and cells were harvested together or separately for analysis of progeny virus yields at 12 h.
as §4

[5] = concentration for 50% protection from virus-induced cytopathogenicity, RD cells, 100 TCID50 EV71, 48 h, MTT
[6] = Enterovirus A, RD cells, 100 TCID50 EV71, 48 h, MTT, read-out: viability rate of infected cells, post-infection treatment

c1ccc(C(Nc2ccccn2)c2c[nH]c3ccccc23)cc1 (stereo not shown) [Compound 4a]
EC50 (Enterovirus 71 (EV71); [5]): 5.5 ± 2.4 µg/mL (≈ 18.4 µM) | inhibition of virus-induced CPE (morphology) (Enterovirus 71 (EV71); RD cells): nearly complete inhibition of CPE | CC50 at 48 h [1]: 17.2 ± 1.6 µg/mL (≈ 57.5 µM) | viability at 10 µg/mL (EV71 [2]; Enterovirus A, 10 µg/mL, RD cells, 100 TCID50 EV71, 48 h, MTT, read-out: viability rate of infected cells, post-infection treatment): 85.8% | titers of virus from infected cells, treatment before infection (preventive effect) (EV71 [2]): nearly the same as those from untreated cells | inhibition of CPEs, post-infection treatment (EV71 [2]; at 40 µg/mL and 20 µg/mL, due to cytotoxic effects on cells): no inhibition of CPEs | intracellular virus titer during virus attachment (EV71 [3]): no significant decrease in virus titer | effect on release of EV71 from cells (EV71 [4]): no effect on the release of EV71

Cn1cc(C(Nc2ccccn2)c2ccc(F)cc2)c2ccccc21 (stereo not shown) [Compound 4i]
EC50 (Enterovirus 71 (EV71); [5]): 6.1 ± 3.2 µg/mL (≈ 18.4 µM) | inhibition of virus-induced CPE (morphology) (Enterovirus 71 (EV71); RD cells): nearly complete inhibition of CPE | CC50 at 48 h [1]: 65.2 ± 7.6 µg/mL (≈ 197 µM) | viability at 20 µg/mL (EV71 [2]; Enterovirus A, 20 µg/mL, RD cells, 100 TCID50 EV71, 48 h, MTT, read-out: viability rate of infected cells, post-infection treatment): 90.5% | titers of virus from infected cells, treatment before infection (preventive effect) (EV71 [2]): nearly the same as those from untreated cells | intracellular virus titer during virus attachment (EV71 [3]): no significant decrease in virus titer | effect on release of EV71 from cells (EV71 [4]): no effect on the release of EV71

Cn1cc(C(Nc2nc3ccccc3s2)c2ccccc2F)c2ccccc21 (stereo not shown) [Compound 4r]
EC50 (Enterovirus 71 (EV71); [5]): 7.3 ± 1.3 µg/mL (≈ 18.8 µM) | inhibition of virus-induced CPE (morphology) (Enterovirus 71 (EV71); RD cells): nearly complete inhibition of CPE | CC50 at 48 h [1]: 150 ± 16.2 µg/mL (≈ 387 µM) | viability at 40 µg/mL (EV71 [2]; [6]): 84.6% | titers of virus from infected cells, treatment before infection (preventive effect) (EV71 [2]): nearly the same as those from untreated cells | inhibition of virus-induced CPEs, post-infection treatment (EV71 [2]; RD cells): almost completely inhibited virus-induced CPEs | intracellular virus titer during virus attachment (EV71 [3]): no significant decrease in virus titer | effect on release of EV71 from cells (EV71 [4]): no effect on the release of EV71

c1ccc(C(Nc2nc3ccccc3s2)c2c[nH]c3ccccc23)nc1 (stereo not shown) [Compound 4s]
EC50 (Enterovirus 71 (EV71); EV71, RD, 48 h): 9.1 ± 3.1 µg/mL (≈ 25.5 µM) | inhibition of virus-induced CPE (morphology) (Enterovirus 71 (EV71); RD cells): nearly complete inhibition of CPE | CC50 at 48 h [1]: 137 ± 9.3 µg/mL (≈ 383 µM) | viability at 40 µg/mL (EV71 [2]; [6]): 95.7% | titers of virus from infected cells, treatment before infection (preventive effect) (EV71 [2]): nearly the same as those from untreated cells | inhibition of virus-induced CPEs, post-infection treatment (EV71 [2]; RD cells): almost completely inhibited virus-induced CPEs | intracellular virus titer during virus attachment (EV71 [3]): no significant decrease in virus titer | effect on release of EV71 from cells (EV71 [4]): no effect on the release of EV71
